Columns and labels:
[1] = tested on: primary human endothelial cells expressing luciferase under the control of the KLF2 promoter; test: KLF2 induction cell based bioassay (GLuc KLF2 concentration response, luciferase reporter); conditions: 24 hours incubation, 11-point concentration response; for IC50: 24 h, read-out: GLuc KLF2 Conc Response (IC50) Avg; for EC50: EC50 = concentration where normalized curve passes 0.5, read-out: GLuc KLF2 Conc Response (EC50) Ave
Text: In endothelial cell culture media, a stock of the highest working concentration was made at no more than 1% DMSO vehicle. The working stock was then serially diluted 1:2 to make an 11-point concentration response curve. Included in the 96-well plate were 2 reference compounds with known potencies. A DMSO column was included in the 96-well plate at the highest percent vehicle of the working stocks. The 96-well cell culture plate of primary human endothelial cells expressing luciferase under the control of the KLF2 promoter was dosed with 200 μL per well of the dilution series as well as the DMSO control column. The assay plate was incubated at 37° C. for 24 hours. The supernatant was collected at 24 hours.
20 μL of the supernatant was then placed in a 384-well plate with optical duplicates. The corners of the plate received 20 μL of the Gaussia Luciferase Enzyme positive control, as well as 20 μL of the 50 μM Coelenterizine substrate. The plate read is then calibrated using the control, and read using a Molecular Devices SpectraMax iD5, providing luminescence in relative light units (RLU). The plate reader injected 20 μL of the 50 μM Coelenterazine substrate immediately before taking the RLU measurement for each well.
The sample signals were then normalized to the average signal of the DMSO column, as well as to the maximum signal of one of the reference compounds, as shown in the equations below: […]
The EC50 of each compound is then defined as when the concentration response curve passes 0.5.

[2] = tested on: KLF2; test: qPCR KLF2 concentration response; type: cell-based; conditions: read-out: qPCR KLF2 Conc Response (EC50)

Row | IC50 [1] [µM] | EC50 [2] [µM] | Structure (SMILES) | EC50 [1] [µM]
1 | 0.2 | 0.01 | COc1ccccc1CNC(=O)C1(C)COc2c(oc3ccccc23)C(=O)N1CC1(F)CCC1 (centres unmarked) [Example 2] | 0.02
2 | 0.34 | 0.01 | COc1ccccc1CNC(=O)C1(C)COc2c(oc3ccccc23)C(=O)N1CC(C)(C)OC (centres unmarked) [Example 3] | 0.06
3 | 0.15 |  | C#CCCN1C(=O)c2oc3ccccc3c2OCC1(C)C(=O)NCc1ccccc1OC (centres unmarked) [Example 5] | 0.04
4 | 0.07 | 0.01 | C#CCCN1C(=O)c2oc3ccccc3c2OC[C@]1(C)C(=O)NCc1ccccc1OC [Example 6] | 0.02

— patent US20250109143A1, “KLF2 INDUCING DEUTERATED COMPOUNDS AND USES THEREOF” (Riparian Pharmaceuticals, Inc., priority 2023, published 2025)
